In BindingDB's records for patent US20240352046 (1Cbio, 2024):

Target: T1, Ectonucleotide pyrophosphatase/phosphodiesterase family member 1 (Homo sapiens, UniProt P22413)
T1 sequence (P22413 whole entry): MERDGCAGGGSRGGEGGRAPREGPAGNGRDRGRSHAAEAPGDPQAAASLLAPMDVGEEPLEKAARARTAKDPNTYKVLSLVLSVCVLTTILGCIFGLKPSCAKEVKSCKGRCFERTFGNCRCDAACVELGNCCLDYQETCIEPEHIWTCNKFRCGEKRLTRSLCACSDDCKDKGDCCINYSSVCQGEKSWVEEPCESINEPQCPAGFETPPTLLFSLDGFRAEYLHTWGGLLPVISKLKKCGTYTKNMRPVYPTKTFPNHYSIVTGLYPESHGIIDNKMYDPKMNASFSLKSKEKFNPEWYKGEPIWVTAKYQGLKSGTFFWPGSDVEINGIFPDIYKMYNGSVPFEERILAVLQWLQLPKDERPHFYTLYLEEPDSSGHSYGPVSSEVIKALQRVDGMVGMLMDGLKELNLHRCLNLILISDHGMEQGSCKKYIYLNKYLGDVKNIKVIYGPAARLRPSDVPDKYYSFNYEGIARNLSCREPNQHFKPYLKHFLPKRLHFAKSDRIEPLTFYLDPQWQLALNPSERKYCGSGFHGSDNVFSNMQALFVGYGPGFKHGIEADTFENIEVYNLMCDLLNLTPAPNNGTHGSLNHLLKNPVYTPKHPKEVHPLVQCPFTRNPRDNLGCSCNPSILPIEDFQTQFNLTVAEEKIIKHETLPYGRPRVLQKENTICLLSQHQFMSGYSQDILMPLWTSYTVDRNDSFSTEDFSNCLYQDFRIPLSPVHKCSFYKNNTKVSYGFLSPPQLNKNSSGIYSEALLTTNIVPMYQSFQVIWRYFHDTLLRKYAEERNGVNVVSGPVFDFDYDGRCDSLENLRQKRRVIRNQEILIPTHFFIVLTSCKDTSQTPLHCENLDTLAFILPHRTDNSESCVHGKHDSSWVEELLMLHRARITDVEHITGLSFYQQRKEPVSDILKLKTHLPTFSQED
Assay: ENPP1 Inhibition Assay
Experimental: Dose response curve for the compounds were prepared in duplicates with starting conc. at 5 μM and a three-fold titration was performed. The reaction buffer consisted of 50 mM Tris (pH 8.0), 0.5 mM CaCl2), 1 μM ZnCl2, 250 mM NaCl and 0.1 mg/ml BSA. […] The reaction was then stopped by heating at 90° C. for 3 minutes. […] Following 60 min incubation, 20 μL of detection mixture was added to the enzyme reaction bringing the final volume to 40 μL. The reaction was further incubated for 60 min at RT after which the plates were read using BioTek Plate reader.

| IC50 | SMILES |
| --- | --- |
| > 3000 nM | COc1ccc2c(N3CC(CCNS(N)(=O)=O)C3)nc(C3CC3)nc2c1 [US20240352046, Compound 1.42] |
| 793 nM | COc1ccc2c(N3CC(CCN(C)S(N)(=O)=O)C3)ncnc2c1 [US20240352046, Compound 1.40] |
| 892 nM | COc1cc2nc(C(F)F)nc(N3CC(CCNS(N)(=O)=O)C3)c2cc1OC [US20240352046, Compound 1.43] |
| 855 nM | COc1cc2ncnc(N3CC(CCN(C)S(N)(=O)=O)C3)c2cc1OC [US20240352046, Compound 1.47] |
